Common to all, as to type: functional
Test [1] has as its system Mycobacterium tuberculosis. The test is described as follows: Antitubercular activity against Mycobacterium tuberculosis H37Rv clinical isolate harboring katG S315T mutant by BACTEC 960 assay.
Test [2] has as its system Mycobacterium tuberculosis. Briefly: Antitubercular activity against katG-deficient isoniazid-resistant Mycobacterium tuberculosis H37Rv ATCC 27294 by BACTEC 960 assay.
Test [3] has as its system Mycobacterium tuberculosis. The test is described as follows: Ratio of isoniazid MIC to compound MIC for Mycobacterium tuberculosis H37Rv clinical isolate harboring katG S315T mutant by BACTEC 960 assay.

Structures are written as SMILES. ≈ marks a conversion by molar mass, not a printed value.

The term MIC denotes the least concentration at which growth counts as inhibited. The low end stands for a more susceptible organism, the high end for a less susceptible organism.

Consider `CCCCCC(C)C(=O)NNC(=O)c1ccncc1` (stereo not given), for which the MIC in test [1] was more than 38 µM.

With `O=C(N/N=C/c1cccc(CO)c1)c1ccncc1`, the MIC was 39.2 µM (≈ 10 µg/mL) in test [1] and more than 39.2 µM in test [2].

Turning to `O=Cc1cccc(/C=N/NC(=O)c2ccncc2)c1`, the minimal inhibitory concentration (MIC) in test [1] and in test [2] was more than 39.5 µM throughout.

In the case of `O=C(N/N=C/c1ccc(Oc2ccccc2)cc1)c1ccncc1`, in test [1], the MIC is 18.9 µM (≈ 6 µg/mL).

Compound `NNC(=O)c1ccnc(NN)c1` yielded an MIC in test [1] of 47.9 µM (≈ 8.01 µg/mL).

With `CC(=O)NNC(=O)c1ccncc1`, the MIC in test [1] and in test [2] was more than 55.8 µM each time.

The compound `COC(=O)c1ccc(/C=N/NC(=O)c2ccncc2)cc1` yielded an MIC in test [1] of 21.2 µM (≈ 6.01 µg/mL).

Consider `NNC(=O)c1ccncc1` [ISONIAZID], for which the values for the MIC in test [1] and in test [2] were 43.8 µM (≈ 6.01 µg/mL) and more than 72.9 µM, respectively.

Turning to `O=Cc1ccc(/C=N/NC(=O)c2ccncc2)cc1`, the MIC in test [1] and in test [2] was more than 39.5 µM throughout.

As for `CCCCCCCCCC(=O)NNC(=O)c1ccncc1`, in test [3], the Ratio came out at 6. The MIC was 6.9 µM (≈ 2.01 µg/mL) in test [1] and more than 34.3 µM in test [2].

`O=C(NN=C1CCC(c2ccccc2)CC1)c1ccncc1` (stereo not given): the MIC in test [1] is 34.1 µM (≈ 10 µg/mL); in test [2], more than 34.1 µM.

In the case of `O=C(NNC1CCC(c2ccccc2)CC1)c1ccncc1` (stereo not given), the MIC in test [1] and in test [2] was more than 33.9 µM throughout.

As for `O=C(NN=C1CCCC1)c1ccncc1`, the MIC in test [1] was 39.4 µM (≈ 8.01 µg/mL); in test [2], more than 49.2 µM.

On to `O=C(N/N=C/c1ccc(CO)cc1)c1ccncc1`, for which the MIC is 39.2 µM (≈ 10 µg/mL) in test [1] and more than 39.2 µM in test [2].
